These are literature values, as cited in patent publication US9650616B2, “Methods for increasing grain yield” (University of Florida Research Foundation, Inc., priority 2014, dated 2017).

Usually kcat stands for the maximal rate divided by the concentration of active sites. For orientation: Km means the substrate concentration at which the rate is half of its maximum.

The data set has as its target T1, maize endosperm AGPase variant T142F (Zea mays, UniProt P55241+Q84PF5, T142F).
T1 construct: data of Boehlein et al., 2013
T1 sequence (P55241 46-516 T142F): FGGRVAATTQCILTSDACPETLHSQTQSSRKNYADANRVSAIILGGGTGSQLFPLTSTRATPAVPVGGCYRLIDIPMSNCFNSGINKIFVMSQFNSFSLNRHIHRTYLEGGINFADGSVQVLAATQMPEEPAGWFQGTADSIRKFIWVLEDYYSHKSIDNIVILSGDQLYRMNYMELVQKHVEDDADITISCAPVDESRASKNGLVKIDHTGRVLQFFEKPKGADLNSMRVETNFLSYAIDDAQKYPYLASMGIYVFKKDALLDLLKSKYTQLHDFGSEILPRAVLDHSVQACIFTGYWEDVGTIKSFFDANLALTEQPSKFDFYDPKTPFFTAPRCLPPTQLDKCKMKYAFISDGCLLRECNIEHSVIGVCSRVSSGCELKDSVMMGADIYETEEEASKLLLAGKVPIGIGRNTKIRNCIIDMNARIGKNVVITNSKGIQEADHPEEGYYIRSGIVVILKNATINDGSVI
T1 sequence (Q84PF5 1-474): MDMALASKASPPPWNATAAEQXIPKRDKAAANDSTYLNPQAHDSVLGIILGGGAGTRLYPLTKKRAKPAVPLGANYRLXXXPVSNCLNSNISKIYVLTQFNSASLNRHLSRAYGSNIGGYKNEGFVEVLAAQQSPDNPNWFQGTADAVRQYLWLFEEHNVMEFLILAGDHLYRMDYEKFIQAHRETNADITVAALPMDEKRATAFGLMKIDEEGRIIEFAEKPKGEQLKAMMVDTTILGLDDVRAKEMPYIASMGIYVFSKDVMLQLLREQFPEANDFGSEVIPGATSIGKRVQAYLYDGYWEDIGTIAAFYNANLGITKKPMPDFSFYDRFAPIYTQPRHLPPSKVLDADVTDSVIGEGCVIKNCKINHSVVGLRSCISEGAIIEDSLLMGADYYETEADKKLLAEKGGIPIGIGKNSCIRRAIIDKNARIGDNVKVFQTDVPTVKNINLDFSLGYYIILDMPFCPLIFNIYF
As to conditions: cited from earlier work.

On to `Nc1ncnc2c1ncn2[C@@H]1O[C@H](COP(=O)(O)OP(=O)(O)OP(=O)(O)O)[C@@H](O)[C@H]1O` [ATP], for which, for the setting “absence of 3-PGA”, the kcat was 53.8 s⁻¹. Under “read-out: ATP Km, absence of 3-PGA”, the Michaelis constant (Km) is 1730 µM. The Kd (read-out: Kia (dissociation constant for the E-ATP complex), absence of 3-PGA) is 1500 µM.
